Measured values as given in patent US6410564B1, “Naphthyl compounds, intermediates, processes, compositions, and methods” (Eli Lilly and Company, priority 1994, dated 2002).
Read-outs that look alike come from different tables or passages of the source.

Columns and labels:
[1] = tested on: ovariectomized (OVX) female Sprague Dawley rats; details: rat, in vivo, po, 4 days
Protocol: In the examples illustrating the methods, a post-menopausal model was used in which effects of different treatments upon circulating lipids were determined.
(§1) Seventy-five day old female Sprague Dawley rats (weight range of 200 to 225 g) were obtained from Charles River Laboratories (Portage, Mich.). The animals were either bilaterally ovariectomized (OVX) or exposed to a Sham surgical procedure at Charles River Laboratories, and then shipped after one week. Upon arrival, they were housed in metal hanging cages in groups of 3 or 4 per cage and had ad libitum access to food (calcium content approximately 0.5%) and water for one week. Room temperature was maintained at 22.2°±1.7° C. with a minimum relative humidity of 40%. The photoperiod in the room was 12 hours light and 12 hours dark.
(§2) Dosing Regimen Tissue Collection. After a one week acclimation period (therefore, two weeks post-OVX) daily dosing with test compound was initiated. 17α-ethynyl estradiol or the test compound were given orally, unless otherwise stated, as a suspension in 1% carboxymethylcellulose or dissolved in 20% cyclodextrin. Animals were dosed daily for 4 days. Following the dosing regimen, animals were weighed and anesthetized with a ketamine: Xylazie (2:1, V:V) mixture and a blood sample was collected by cardiac puncture. The animals were then sacrificed by asphyxiation with CO2, the uterus was removed through a midline incision, and a wet uterine weight was determined.
(§3) Data presented in Table 1 below show comparative results among ovariectomized rats, rats treated with 17α-ethynyl estradiol (EE2; an orally available form of estrogen), and rats treated with certain compounds of the present invention. […] This uterine response to estrogen is well recognized in the art.
(§4) The data presented in the Tables 1 below reflects the response of 5 to 6 rats per treatment.

[2] = tested on: Uterine Eosinophil Peroxidase (EPO); details: rat, in vivo; for Uterine EPO (V. max): po
Source text: as §1, §2
Uterine Eosinophil Peroxidase (EPO) Assay. Uteri were kept at 4° C. until time of enzymatic analysis. The uteri were then homogenized in 50 volumes of 50 mM Tris Buffer (pH −8.0) containing 0.005% Triton X-100. Upon addition of 0.01% hydrogen peroxide and 10 mM O-phenylenediamine (final concentrations) in Tris buffer, increase in absorbance was monitored for one minute at 450 nm. The presence of eosonophils in the uterus is an indication of estrogenic activity of a compound. The maximal velocity of a 15 second interval was determined over the initial, linear portion of the reaction curve.
As is expressed in the below data, estrogenicity also was assessed by evaluating the adverse response to eosinophil infiltration into the uterus.
as §4

[3] = tested on: ovariectomized (OVX) female Sprague Dawley rats; experiment: Serum cholesterol in OVX rats, 4-day dosing; format: in vivo, rat
Source text: as §1, §2
Cholesterol Analysis. Blood samples were allowed to clot at room temperature for 2 hours, and serum was obtained following centrifugation for 10 minutes at 3000 rpm. Serum cholesterol was determined using a Boehringer Mannheim Diagnostics high performance cholesterol assay. Briefly the cholesterol was oxidized to cholest-4-en-3-one and hydrogen peroxide. The hydrogen peroxide was then reacted with phenol and 4-aminophenazone in the pressure of peroxidase to produce a p-quinone imine dye, which was read spectrophotemetrically at 500 nm. Cholesterol concentration was then calculated against a standard curve. The entire assay was automated using a Biomek Automated Workstation.
as §3, §4

[4] = tested on: ovariectomized (OVX) female Sprague Dawley rats; experiment: Osteoporosis Test Procedure: distal femur metaphysis X-ray image analysis, OVX rats, 35 days; format: in vivo, rat; details: for Distal Femur Metaphysis (X-ray Image Analysis-Gray Score): 0.1 mg/kg, mean ± SEM
Source text: as §1
Following the General Preparation Procedure, infra, the rats were treated daily for 35 days (6 rats per treatment group) and sacrificed by carbon dioxide asphyxiation on the 36th day. The 35 day time period was sufficient to allow maximal reduction in bone density, measured as described herein. At the time of sacrifice, the uteri were removed, dissected free of extraneous tissue, and the fluid contents were expelled before determination of wet weight in order to confirm estrogen deficiency associated with complete ovariectomy. […] The uteri were then placed in 10% neutral buffered formalin to allow for subsequent histological analysis.
The right femurs were excised and digitilized x-rays generated and analyzed by an image analysis program (NIH image) at the distal metaphysis. The proximal aspect of the tibiae from these animals were also scanned by quantitative computed tomography.
In accordance with the above procedures, compounds of the present invention and ethynyl estradiol (EE2) in 20% hydroxypropyl β-cyclodextrin were orally administered to test animals. Distal femur metaphysis data presented in Tables 2 and 3 below are the results of formula I compound treatments compared to intact and ovariectomized test animals. Results are reported as the mean ± the standard error of the mean.

[5] = female, Sprague Dawley, 0.1 mg/kg, 4 days
[6] = female, Sprague Dawley, 1 mg/kg, 4 days
[7] = female, Sprague Dawley, 10 mg/kg, 4 days
[8] = Rattus norvegicus, po, 96 h, oral daily for 4 days, dose 0.1 mg/kg, read-out: Serum Cholesterol (% decrease vs. OVX)
[9] = Rattus norvegicus, po, 96 h, oral daily for 4 days, read-out: Serum Cholesterol (% decrease vs. OVX)

Row | SMILES | Uterine Weight (% increase vs. OVX) ([1]; 0.1 mg/kg) [%] | Uterine Weight (% increase vs. OVX) ([1]; 1 mg/kg) [%] | Uterine Weight (% increase vs. OVX) ([1]; 10 mg/kg) [%] | Uterine EPO (V. max) [2, 5] | Uterine EPO (V. max) [2, 6] | Uterine EPO (V. max) [2, 7] | inhibition in vivo at 0.1 mg/kg [3, 8] [%] | inhibition in vivo at 1 mg/kg [3, 9] [%] | inhibition in vivo at 10 mg/kg [3, 9] [%] | Uterine Weight (% increase vs. OVX) ([1]; 0.01 mg/kg) [%] | Uterine EPO (V. max) ([2]; female, Sprague Dawley, 0.01 mg/kg, 4 days) | inhibition in vivo at 0.01 mg/kg ([3]; Rattus norvegicus, po, 96 h, oral daily for 4 days, dose 0.01 mg/kg, read-out: Serum Cholesterol (% decrease vs. OVX)) [%] | eosinophil infiltration into the uterus (number of eosinophils in the stromal layer, in words) [2] | Uterine EPO (V. max) ([2]; 0.1 mg/kg) | Distal Femur Metaphysis (X-ray Image Analysis-Gray Score) ([4]; Table 2, oral daily 35 days in 20% cyclodextrin, OVX control 5.5 ± 0.6, Sham 30.5 ± 4.3) | Distal Femur Metaphysis (X-ray Image Analysis-Gray Score) ([4]; Table 3, oral daily 35 days in 20% cyclodextrin, OVX control 7.2 ± 2.2, Sham 44.7 ± 6.4) | bone loss / femur density after ovariectomy (in words) ([4]; oral, 35 days) | Serum Cholesterol (% decrease vs. OVX) ([3]; oral daily for 4 days, dose 0.1 mg/kg) [%] | serum cholesterol compared to ovariectomized control animals (in words) ([3]; oral, 4 days, EE2 at 0.1 mg/kg/day)
1 | CC1(C)CCN(CCOc2ccc(Cc3c(-c4ccc(O)cc4)ccc4cc(O)ccc34)cc2)C1 [Example 33, [2-(4-Hydroxyphenyl)-6-hydroxynaphthalen-1-yl][4-[2-(1-(3,3-dimethyl)pyrrolidinyl)ethoxy]phenyl]methane] | 40.8 | 79.0 | 63.0 | 12.9 | 55.2 | 73.5 | 25.2 | 41.1 | 52.8 | – | – | – | – | – | – | – | – | – | –
2 | Oc1ccc2c(Cc3ccc(OCCN4CCCCC4)cc3)c(-c3ccccc3)ccc2c1 [Example 11, [2-Phenyl-6-hydroxynaphthalen-1-yl][4-[2-(1-piperdinyl)ethoxy]phenyl]methane] | 48.1 | 47.4 | 14.4 | 4.8 | 3.9 | 3.9 | 60.2 | 73.5 | 72.4 | – | – | – | – | – | – | – | – | – | –
3 | Oc1ccc(-c2ccc3cc(O)ccc3c2Cc2ccc(OCCN3CCOCC3)cc2)cc1 [Example 32] | 50.5 | 55.4 | 69.7 | 9.3 | 39.3 | 34.8 | 57.9 | 60.3 | 65.7 | – | – | – | – | – | – | – | – | – | –
4 | Oc1ccc2c(Cc3ccc(OCCN4CCCC4)cc3)c(-c3ccccc3)ccc2c1 [Example 12] | 26.3 | 18.6 | 25.1 | 12.0 | 4.8 | 4.5 | 46.3 | 49.9 | 50.1 | – | – | – | – | – | – | – | – | – | –
5 | COc1ccc(-c2ccc3cc(OC)ccc3c2Cc2ccc(OCCN3CCCCCC3)cc2)cc1.Cl [Example 26, [2-(4-Methoxyphenyl)-6-methoxynaphthalen-1-yl][4-[2-(1-hexamethyleneiminyl)ethoxy]phenyl]methane hydrochloride] | – | – | – | – | – | – | 45.1 | 55.5 | 60.6 | – | – | – | – | – | – | – | – | – | –
6 | COc1ccc(-c2ccc3ccccc3c2Cc2ccc(OCCN3CCCCC3)cc2)cc1.Cl [Example 15, [2-(4-Methoxyphenyl)-naphthalen-1-yl][4-[2-(1-piperdinyl)ethoxy]phenyl]methane hydrochloride] | 41.6 | 21.2 | 53.7 | 7.0 | 5.2 | 5.5 | 53.4 | 66 | 55.4 | 29.3 | 4.6 | 12.4 | – | – | – | – | – | – | –
7 | Oc1ccc(-c2ccc3cc(O)ccc3c2Cc2ccc(OCCN3CCCC3)cc2)cc1 [Example 19] | −12.4 | 1.0 | 7.1 | 0.9 | 5.4 | 4.5 | 4.5 | 19.7 | 40.9 | – | – | – | – | – | – | – | – | – | –
8 | C#C[C@]1(O)CC[C@H]2[C@@H]3CCc4cc(O)ccc4[C@H]3CC[C@@]21C [EE2, 17α-ethynyl estradiol, reference compound] | – | – | – | – | – | – | – | – | – | – | – | – | substantial, expected increase in eosinophil infiltration | 116.4 | 32.8 ± 7.9 | 44.4 ± 4.8 | prevented this loss | 81.4 | caused a decrease in serum cholesterol
9 | CCN(CC)CCOc1ccc(Cc2c(-c3ccc(OC)cc3)ccc3cc(OC)ccc23)cc1.Cl [Example 22, [2-(4-Methoxyphenyl)-6-methoxynaphthalen-1-yl][4-[2-(1-N,N-diethylamino)ethoxy]phenyl]methane hydrochloride] | 83.9 | 87.5 | 89.3 | 45.0 | 41.1 | 46.2 | 72 | 60.5 | 68.7 | – | – | – | – | – | – | – | – | – | –
10 | CC(C)(C)C(=O)Oc1ccc(-c2ccc3cc(OC(=O)C(C)(C)C)ccc3c2Cc2ccc(OCCN3CCCCC3)cc2)cc1 [Example 4, [2-(4-Pivaloyloxyphenyl)-6-pivaloyloxynaphthalen-1-yl][4-[2-(1-piperidinyl)ethoxy]phenyl]methane] | 52.1 | 22.8 | 75.2 | 3.6 | 2.9 | 3.4 | 21.2 | 37.2 | 20.8 | – | – | – | – | – | – | – | – | – | –
11 | CCCCS(=O)(=O)Oc1ccc(-c2ccc3cc(OS(=O)(=O)CCCC)ccc3c2Cc2ccc(OCCN3CCCCC3)cc2)cc1 [Example 5, [2-(4-n-Butylsulfonyloxyphenyl)-6-n-butylsulfonyloxynaphthalen-1-yl][4-[2-(1-piperidinyl)ethoxy]phenyl]methane] | 43.2 | 16.0 | 25.3 | 3.4 | 4.3 | 2.6 | 6 | 62 | 46.2 | – | – | – | – | – | – | – | – | – | –
